Experiments:
EP2 receptor = target: T1, EP2 receptor (Homo sapiens, UniProt P43116); assay: Competitive binding to EP2 receptor against radiolabeled ligand 3H-PGE2; conditions: 8 concentrations from 10 µM, 10-fold dilutions
T1 construct: purchased Merck HTS185M
Protocol: This experiment was carried out in 96-well plates to evaluate the binding affinity of the compounds of the present invention (Ia-1, Ia-2 and Ia-3) to the prostaglandin EP2 receptor by testing their ability of competitive binding to the EP2 receptor with the radiolabeled ligand ^3H-PGE2. Treprostinil was used as control. MicroBeta2 was used to detect the number of ^3H captured, and Prism software was used to analyze data. The EP2 film (Merck, Cat# HT[…], batch number 2121326) was diluted with a buffer (50 mM Hepes, PH=7.4, 5 mM MgCl2, 1 mM CaCl2, 0.5% BSA) to a final concentration of 75 μg/mL. ^3H-PGE2 was diluted to 15 nM. Test compound and control compound solutions with an initial concentration of 10 μM were prepared, and subjected to 10-fold continuous gradient dilution, with a total of 8 concentrations for testing. 5%DMSO was used as a solvent control group. 1 μL of each compound solution was added into a corresponding position in the 96-well test plate, and each well was added with 50 μL of the EP2 film (about 3.75 μg/well), and added with 50 μ L of ^3H-PGE2. Then, the well plate was sealed, and incubated with shaking at 300 rpm at room temperature for 2 hours. After finishing the incubation, GF/C plates were filtered with Perkin Elmer Filtermate Harvester, and then each plate was washed with cold eluent for 4 times, and dried at 50°C for 1 hour. After drying, bottoms of wells of the filter plate were sealed with a PerkinElmer Unifilter-96 backing tape. 50 μL of Perkin Elmer Microscint O was added. The top of the filter plate was sealed with Perkin Elmer TopSeal-A sealing film. The number of ^3H captured was detected by MicroBeta2.

SD rats = assay: U46619-induced rat acute pulmonary arterial pressure rise model, low-dose airway nebulized administration (RVSP); type: in vivo; conditions: 1 hour after low-dose airway nebulized administration (about 3 µg/kg, equimolar)
Text: In this experiment, airway nebulized administration dosages of the compounds were about 1/7 of airway nebulized administration dosages in Experimental Example 5. By using a U46619-induced rat acute pulmonary arterial pressure rise model, antihypertensive effects of the compounds of the present invention after airway nebulized administration were further verified by reducing the administration dosages.
A model construction method was the same as that described in Experimental Example 5. In this experiment, dosages of groups were as follows: the dosage of compound C16-TR group was 3 µg/kg, and the dosages of equimolar compounds Ia-1, Ia-2 and Ia-3 were 3.0 µg/kg, 3.2 µg/kg and 3.3 µg/kg respectively.
The SD rats were anesthetized and then administered by airway nebulization, and then the basic right ventricular systolic pressure (RVSP) was measured by right cardiac catheterization. The SD rats were intravenously injected with U46619 (25 µg /kg) at 1 hour after airway nebulized administration of each compound, a peak value of RVSP rise after injection with U46619 was observed and recorded, and the inhibition percentage on the RVSP rise was calculated by comparing with the basic RVSP value. The number of experimental animals in each group was 1~2.

IP receptor = target: T2, IP receptor (Homo sapiens, UniProt P43119); assay: In-vitro agonist activity on IP receptor, FLIPR calcium test in IP/HEK293 cells; type: cell-based; conditions: 10 concentrations, 10-fold dilutions
T2 construct: host or cells: HEK293 (IP/HEK293 cell line)
T2 sequence (P43119 whole entry): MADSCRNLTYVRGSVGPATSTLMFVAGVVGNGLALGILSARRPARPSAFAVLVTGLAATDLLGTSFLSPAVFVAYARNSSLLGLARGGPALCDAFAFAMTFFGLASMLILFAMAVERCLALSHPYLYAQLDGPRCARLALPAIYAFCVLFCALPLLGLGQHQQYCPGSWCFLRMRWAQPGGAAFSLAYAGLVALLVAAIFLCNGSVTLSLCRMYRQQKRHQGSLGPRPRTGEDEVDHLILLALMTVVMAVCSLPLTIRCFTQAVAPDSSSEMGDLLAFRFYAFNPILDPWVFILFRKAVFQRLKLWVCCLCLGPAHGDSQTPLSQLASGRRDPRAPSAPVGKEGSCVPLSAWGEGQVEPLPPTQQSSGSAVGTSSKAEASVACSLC
Protocol: The specific method is as follows: The IP/HEK293 cell line was provided by WuXi AppTec (Shanghai) Co., Ltd. Well-grown IP/HEK293 cells were taken out from the incubator, the culture solution was aspirated, the cells were washed with D-PBS and digested with trypsin EDTA, and then added with a cell culture solution, and the cells were fully suspended by repeated pipetting. The cells were centrifuged at room temperature, the supernatant was aspirated, a culture medium was added, and the cells were resuspended by repeated pipetting with a sterile pipette. After counting living cells with Vi-CELL™, 20 µL (20,000 cells/well) of cell suspension was added to a 384-well cell culture plate and incubated in a 5% CO2 incubator at 37°C overnight. 1 mL of FLIPR test buffer was added with 77 mg of probenecid to prepare 250 mM probenecid solution. After thawing a bottle of 2XFluo-4 DirectTM (F10471), the bottle was added with 10 mL of FLIPR test buffer containing 500 uM AEBSF, and each 10 mL of Fluo-Direct was added with 0.2 mL of probenecid, with a final concentration of 2.5 mM. The mixture was vortexed and then allowed to stand in the dark for more than 5 minutes. Each compound was placed in a water bath at 25°C for 30 minutes. Then, these compounds were sequentially diluted 10-fold with Bravo, with a total of 10 concentrations, for testing. 750 nL of each compound was transferred to a 384-well compound plate with ECHO. Then, the compound plate was added with 30 µL of detection buffer. The 384-well cell culture plate was taken out from the incubator, the culture medium was discarded, and 20 µL of test buffer and 20 µL of 2X Fluo-4 DirectTM No-Wash loading buffer were added with a pipette. The cell culture plate was incubated in a 5% CO2 incubator at 37°C for 50 minutes and incubated at room temperature for 10 minutes. The cell culture plate, the compound plate and a tip box were placed into FLIPR, FLIPRTETRA test program was operated, 10 µL of reference compound and 10 µL of test compound were aspirated from the compound plate to the cell culture plate, fluorescence signals were read, and then data were processed. The data were analyzed by using Prism.

T1 sequence (P43116 whole entry): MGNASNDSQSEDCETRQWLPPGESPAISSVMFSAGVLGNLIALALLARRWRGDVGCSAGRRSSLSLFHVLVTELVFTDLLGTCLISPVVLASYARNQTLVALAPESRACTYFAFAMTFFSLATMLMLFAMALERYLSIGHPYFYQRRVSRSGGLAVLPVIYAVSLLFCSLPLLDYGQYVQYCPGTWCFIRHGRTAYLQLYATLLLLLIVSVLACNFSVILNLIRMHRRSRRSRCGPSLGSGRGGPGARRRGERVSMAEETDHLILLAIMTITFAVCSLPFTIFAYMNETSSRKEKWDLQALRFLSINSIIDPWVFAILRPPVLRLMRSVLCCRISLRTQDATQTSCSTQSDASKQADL

For `CCCCC[C@H](O)CC[C@@H]1[C@H]2Cc3cccc(OCC(=O)OCCCCCCCCOCCCCc4ccccc4)c3C[C@H]2C[C@H]1O` [Compound Ia-2], the “binding to the EP2 receptor (competition with 3H-PGE2)” value (EP2 receptor) was “no detectable binding”, the “Inhibition percentage on RVSP rise (%) (mean)” value (SD rats) was 65.78% and the “agonist activity on IP receptor” value (IP receptor) was “no agonist activity”.
